Measurements reported in article PMC6709486, “Safety, Tolerability, Pharmacokinetics, and Drug Interaction Potential of SPR741, an Intravenous Potentiator, after Single and Multiple Ascending Doses and When Combined with β-Lactam Antibiotics in Healthy Subjects” (Antimicrobial Agents and Chemotherapy, 2019).
Peptide text beside a SMILES is read from it.

Columns and labels:
[1] = MAD phase safety and tolerability; format: in vivo, human
Description: The SAD/MAD study was a phase 1, double-blind, placebo-controlled, multicohort trial. Part 1 used a SAD design according to which subjects received a single i.v. dose of SPR741. Part 2 used a MAD design in which subjects received multiple daily i.v. doses of SPR741 over a period of 14 days. The objective was to assess the safety/tolerability and PK of single and multiple ascending doses of SPR741.
(§1) In the SAD phase, healthy volunteers were screened within 28 days prior to dosing. Subjects were admitted to the clinical facility on day −1 for up to 3 days. A single dose of SPR741 (or placebo) was administered on day 1. Following completion of all safety assessments and sampling for PK analyses, subjects were discharged on day 2. A follow-up visit occurred 5 to 7 days after day 1 dosing. In the MAD phase, all subjects were admitted to the clinical facility on day −1. Dosing commenced on the morning of day 1. Three doses were administered daily at approximately 8 (±0.5)-h intervals for a total of 14 consecutive days. The last dose was administered on the morning of day 14. Blood and urine samples were collected for assessment of PK parameters. Subjects were discharged on day 16 following completion of all PK sample collection and safety assessments, and a follow-up visit occurred 5 to 7 days after the last dose.
The MAD phase of the study began after safety and tolerability were confirmed in cohort 5, and the appropriate dose level was established. Two subjects received placebo, and six subjects received SPR741 doses of 50, 150, 400 or 600 mg q8h for 14 days. In the first cohort of the MAD phase (50 mg q8h), two subjects (sentinels) began dosing with SPR741 or placebo 72 h prior to dosing of the remaining subjects in this cohort. The remaining six subjects were dosed only after no safety concerns were identified by the Safety Monitoring Group at 72 h. After each MAD dose cohort had completed administration of study drug and all evaluations, the Safety Monitoring Group reviewed blinded cumulative safety data (including the day 19 to 21 follow-up data) to confirm the safety and tolerability of study drug.
For both studies, safety assessments included clinical laboratory testing (hematology, coagulation, serum chemistry, renal chemistry, and urinalysis), vital signs (blood pressure, heart rate, body temperature, and respiratory rate), physical examination, and triplicate 12-lead ECGs. […] Adverse events were recorded at each study visit.

[2] = set-up: species or system human; settings: in vivo
Protocol: as §1

clinical = settings: human, in vivo, iv
Description: The SAD/MAD study was a phase 1, double-blind, placebo-controlled, multicohort trial. Part 1 used a SAD design according to which subjects received a single i.v. dose of SPR741. Part 2 used a MAD design in which subjects received multiple daily i.v. doses of SPR741 over a period of 14 days. The objective was to assess the safety/tolerability and PK of single and multiple ascending doses of SPR741. In the SAD phase, healthy volunteers were screened within 28 days prior to dosing. Subjects were admitted to the clinical facility on day −1 for up to 3 days. A single dose of SPR741 (or placebo) was administered on day 1. Following completion of all safety assessments and sampling for PK analyses, subjects were discharged on day 2. A follow-up visit occurred 5 to 7 days after day 1 dosing. In the MAD phase, all subjects were admitted to the clinical facility on day −1. Dosing commenced on the morning of day 1. Three doses were administered daily at approximately 8 (±0.5)-h intervals for a total of 14 consecutive days. The last dose was administered on the morning of day 14. Blood and urine samples were collected for assessment of PK parameters. Subjects were discharged on day 16 following completion of all PK sample collection and safety assessments, and a follow-up visit occurred 5 to 7 days after the last dose. The MAD phase of the study began after safety and tolerability were confirmed in cohort 5, and the appropriate dose level was established. Two subjects received placebo, and six subjects received SPR741 doses of 50, 150, 400 or 600 mg q8h for 14 days. In the first cohort of the MAD phase (50 mg q8h), two subjects (sentinels) began dosing with SPR741 or placebo 72 h prior to dosing of the remaining subjects in this cohort. The remaining six subjects were dosed only after no safety concerns were identified by the Safety Monitoring Group at 72 h. […]

CC(=O)N[C@H](C(=O)N[C@H](CO)C(=O)N[C@H]1CCNC(=O)[C@H]([C@@H](C)O)NC(=O)[C@H](CCN)NC(=O)[C@H](CCN)NC(=O)[C@H](CC(C)C)NC(=O)[C@@H](Cc2ccccc2)NC(=O)[C@H](CCN)NC1=O)[C@@H](C)O [SPR741] (HELM PEPTIDE1{[ac].T.[dS].[Dab].[Dab].[dF].L.[Dab].[Dab].T}$PEPTIDE1,PEPTIDE1,4:R3-10:R2$$$V2.0)
deaths or severe TEAEs ([1]; MAD): No deaths or severe TEAEs occurred
Abdominal pain: No. (%) of subjects ([1]; in vivo): 2 (8)
Abdominal pain: No. of events ([1]; in vivo): 2
All systemic TEAEs: No. (%) of subjects ([1]; in vivo): 24 (100)
All systemic TEAEs: No. of events ([1]; in vivo): 178
Arthralgia: No. (%) of subjects ([1]; in vivo): 2 (8)
Arthralgia: No. of events ([1]; in vivo): 3
Back pain: No. (%) of subjects ([1]; in vivo): 2 (8)
Back pain: No. of events ([1]; in vivo): 2
Chest discomfort: No. (%) of subjects ([1]; in vivo): 2 (8)
Chest discomfort: No. of events ([1]; in vivo): 2
Contusion: No. (%) of subjects ([1]; in vivo): 2 (8)
Contusion: No. of events ([1]; in vivo): 2
CrCl on day 16 ([1]; in vivo): 65 mL/min
Creatinine clearance decrease: No. of events ([1]; in vivo): 6
Dermatitis contact: No. of events ([1]; in vivo): 7
Diarrhea: No. of events ([1]; in vivo): 3
Dysesthesia: No. (%) of subjects ([1]; in vivo): 2 (8)
Dysesthesia: No. of events ([1]; in vivo): 2
Headache: No. of events ([1]; in vivo): 8
Nausea: No. (%) of subjects ([1]; in vivo): 2 (8)
Nausea: No. of events ([1]; in vivo): 2
Rhinitis: No. (%) of subjects ([1]; in vivo): 2 (8)
Rhinitis: No. of events ([1]; in vivo): 2
catheter site erythema related to the PK cannula ([1]; in vivo): 13%
catheter site pain related to the PK cannula ([1]; in vivo): 25%
decline in CrCl ([1]; in vivo): 50%
infusion site phlebitis, SPR741 subjects ([1]; in vivo): 3
infusion site thrombosis, SPR741 subjects ([1]; in vivo): 2
serious AE of atrial fibrillation, probably related to treatment, withdrawn ([1]; in vivo): One subject
infusion site reactions (site bruising, erythema, pain, phlebitis, swelling), total number ([1]; in vivo, iv): 81
fraction of the dose excreted from 0 to 24 h postdose on day 14 [2]: 139.1%
Tmax (clinical): 1 h
clearance (clinical; CL): 89 mL/min
half-life (clinical; mean (apparent terminal elimination) half-life, day 1): 2.2 h
